{"source": "patent US8450455B2", "about": "“cRGD peptide derivative and its manufacture, and implant having a coating containing a cRGD peptide derivative” (Biotronik AG, priority 2010, dated 2013)", "origin": "cited, not measured here", "key": {"[1]": {"conditions": "1-octanol/water, 25° C."}, "integrin ανβ3": {"target": "integrin ανβ3 (Homo sapiens, UniProt P05106+P06756)", "sequence (P06756 31-889 limits assumed)": "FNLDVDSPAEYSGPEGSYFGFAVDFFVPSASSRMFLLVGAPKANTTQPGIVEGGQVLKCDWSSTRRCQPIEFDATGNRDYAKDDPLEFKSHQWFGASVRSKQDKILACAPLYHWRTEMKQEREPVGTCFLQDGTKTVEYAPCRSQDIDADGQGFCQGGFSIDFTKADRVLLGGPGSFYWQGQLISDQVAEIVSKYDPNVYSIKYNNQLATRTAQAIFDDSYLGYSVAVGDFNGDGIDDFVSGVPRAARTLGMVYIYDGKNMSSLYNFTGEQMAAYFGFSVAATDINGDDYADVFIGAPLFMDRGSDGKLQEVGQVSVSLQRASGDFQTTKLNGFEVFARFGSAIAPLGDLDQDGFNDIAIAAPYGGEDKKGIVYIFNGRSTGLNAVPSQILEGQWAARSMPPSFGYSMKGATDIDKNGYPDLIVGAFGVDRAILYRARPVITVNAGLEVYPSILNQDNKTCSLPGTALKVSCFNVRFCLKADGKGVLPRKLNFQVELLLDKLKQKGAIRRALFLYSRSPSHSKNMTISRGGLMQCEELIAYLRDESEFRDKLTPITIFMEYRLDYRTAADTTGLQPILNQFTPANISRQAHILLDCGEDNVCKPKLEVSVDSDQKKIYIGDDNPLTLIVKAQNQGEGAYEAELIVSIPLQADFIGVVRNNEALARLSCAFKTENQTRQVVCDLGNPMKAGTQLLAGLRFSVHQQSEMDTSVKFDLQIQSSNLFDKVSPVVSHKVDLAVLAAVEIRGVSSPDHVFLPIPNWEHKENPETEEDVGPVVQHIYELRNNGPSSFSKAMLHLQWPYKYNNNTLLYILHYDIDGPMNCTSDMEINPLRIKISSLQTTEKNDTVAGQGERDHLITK", "sequence (P06756 891-1048 partner limits assumed)": "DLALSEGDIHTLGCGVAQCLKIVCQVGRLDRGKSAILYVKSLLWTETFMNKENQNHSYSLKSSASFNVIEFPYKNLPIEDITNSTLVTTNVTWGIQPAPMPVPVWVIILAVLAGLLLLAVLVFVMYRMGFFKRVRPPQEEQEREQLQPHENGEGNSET", "sequence (P05106 27-788)": "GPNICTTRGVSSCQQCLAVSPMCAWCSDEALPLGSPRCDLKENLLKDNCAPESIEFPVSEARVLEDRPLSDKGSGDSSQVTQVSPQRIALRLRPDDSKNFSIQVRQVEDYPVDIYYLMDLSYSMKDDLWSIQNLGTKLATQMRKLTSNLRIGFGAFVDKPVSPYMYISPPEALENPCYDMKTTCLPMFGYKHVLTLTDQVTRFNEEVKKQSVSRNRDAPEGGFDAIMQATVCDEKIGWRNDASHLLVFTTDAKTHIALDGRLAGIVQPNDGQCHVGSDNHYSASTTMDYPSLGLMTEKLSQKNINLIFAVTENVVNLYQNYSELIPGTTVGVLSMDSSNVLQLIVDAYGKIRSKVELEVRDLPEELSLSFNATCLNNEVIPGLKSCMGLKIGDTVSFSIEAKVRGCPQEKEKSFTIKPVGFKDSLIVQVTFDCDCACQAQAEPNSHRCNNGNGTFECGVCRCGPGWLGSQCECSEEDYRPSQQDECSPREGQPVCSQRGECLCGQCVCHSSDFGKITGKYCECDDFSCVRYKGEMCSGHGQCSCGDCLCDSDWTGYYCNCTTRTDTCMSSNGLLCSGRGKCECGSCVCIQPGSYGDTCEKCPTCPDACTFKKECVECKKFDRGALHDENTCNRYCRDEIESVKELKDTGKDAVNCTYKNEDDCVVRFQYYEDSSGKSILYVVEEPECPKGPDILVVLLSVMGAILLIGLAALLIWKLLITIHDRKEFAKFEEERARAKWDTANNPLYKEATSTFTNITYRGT", "conditions": "integrin expressed by tumor cells"}}, "data": [{"compound": "CCCCCCCN", "note": "[1-aminoheptane]", "values": [{"measurement": "logP", "setting": "[1]", "value": 2.57}]}, {"compound": "c(RGDfV)", "values": [{"measurement": "inhibition of integrin ανβ3", "setting": "integrin ανβ3", "value": "well-inhibited"}]}]}
